Data on 9 compounds can be found in patent US6566550B2, “Substituted aromatic ethers as inhibitors of glycine transport” (Pfizer Inc, priority 2001, dated 2003).

A word on the melting point: it is the temperature, or range, at which the solid turns liquid.

System in one series: not given
Settings: not given
On to `Cc1ccc(OC(CCN(C)CC(=O)O)c2ccc(F)cc2)cc1Oc1ccc2c(c1)OCO2` (stereo not drawn), for which the melting point lay in the range of 185 to 188 °C. As for `COc1cc(OC(CCN(C)CC(=O)O)c2ccccc2)ccc1Oc1ccccc1` (stereo not drawn), the melting point amounted to 77.5 °C. Compound `CN(CCC(Oc1ccc(Oc2cccc3c2CCCC3)cc1)c1ccc(F)cc1)CC(=O)O` (stereo not drawn) returned a melting point of 60 to 61 °C. For the compound `COc1cccc(Oc2cc(OC(CCN(C)CC(=O)O)c3ccc(F)cc3)ccc2C)c1` (stereo not drawn), the melting point fell in the range of 55 to 57 °C. The compound `COc1cc(OC(CCN(C)CC(=O)O)c2ccc(F)cc2)ccc1Oc1ccccc1` (stereo not drawn) gave a melting point of 139.5 °C.

For the compound `COc1ccc(Oc2cc(OC(CCN(C)CC(=O)O)c3ccc(F)cc3)ccc2C)cc1` (stereo not drawn), the melting point was in the range of 63 to 65 °C. On the same count and under the same terms, for `COc1ccc(Oc2ccc(OC(CCN(C)CC(=O)O)c3ccccc3)cc2OC)cc1` (stereo not drawn) the value was 60.1 °C; for `Cc1ccc(Oc2ccc(OC(CCN(C)CC(=O)O)c3ccc(F)cc3)c(Cl)c2)cc1` (stereo not drawn), 129.3 °C.

A further series has as its system NMDA receptor. The conditions noted are these: effect blocked by a specific NMDA-site antagonist and a glycine-site antagonist; cited from earlier work.
With `CN(CCC(Oc1ccc(-c2ccccc2)cc1)c1ccc(F)cc1)CC(=O)O` (stereo not drawn) [NFPS], the “post synaptic current driven by the NMDA receptor” value is on record as “increased the post synaptic current driven by the NMDA receptor”.
